This note sets out measurements from patent US6706738B2, “Substituted bicyclic heteroaryl compounds and their use as integrin antagonists” (Aventis Pharma Limited, priority 1999, dated 2004).

`Cc1ccccc1Nc1nc2ccc(CC(=O)Nc3ccc(C(C)CC(=O)O)nc3)cc2o1` (racemic) [Example 1, (3RS)-3-{5-[2-(2-o-Tolylamino-benzoxazol-6-yl)-acetylamino]-pyrid-2-yl}-butyric acid]: the melting point is 195 to 196 °C (dec.).

The term melting point denotes the temperature, or range, at which the solid turns liquid.
